Drawing on PubChem BioAssay AID504874 (NMMLSC, 2011), this text covers viability for 78 compounds.

Activity calls are given as the source filed them.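 Rule for the calls: active = normalized viability below 40% relative to DMSO and staurosporine controls, called cytotoxic; inactive = the rest.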

The assay has as its system L1210 murine leukemia viability, fluorescein diacetate flow cytometry, 48 h. As to the kind of experiment: viability of murine L1210 leukemia line – cell-based, cytotoxicity control for T cell immune modulator project (AID 504874). The following applies: at 20 µM; stronger effect = lower value.
With `CCOC(=O)c1c(C=O)c2ccccc2n1CC`, the viability (usually a read-out of living cells in per cent, often relative to untreated cells) was 104% (inactive).
Consider `COc1ccc(CNC(=O)c2cccnc2SC)cc1OC`, for which the viability was 101% (inactive).
In the case of `Cc1ccc(S(=O)(=O)N2CCN(C(=O)CNC(=O)c3ccc(Cl)cc3)CC2)cc1`, the viability is 96.1% (inactive).
In the case of `Cc1cc(Cl)c(OCCCSc2nc(C)cc(=O)[nH]2)c(Br)c1` it was 107% (inactive).
For the compound `CCN(CC)S(=O)(=O)c1ccc(Cl)c(NC(=O)COC(=O)C2CCCCC2)c1`, the viability was 102% (inactive).
Regarding `COc1ccc(C(O)c2coc3ccc(O)c(CN(C)C)c23)cc1` (stereo not drawn), the viability was 87.4% (inactive).
In the case of `COc1ccc(N2CC(C(=O)NC(C)C(=O)NCc3ccccc3OC)CC2=O)cc1` (stereo not drawn) it was 104% (inactive); in that of `CCOC(=O)N1CCN(C(=O)c2ccc(CS(=O)Cc3ccc(C)cc3)o2)CC1` (stereo not drawn), 107% (inactive); in that of `Cc1ccc(N2CC(C(=O)NC3=NCCS3)CC2=O)cc1` (stereo not drawn), 102% (inactive).
Consider `CN(C)S(=O)(=O)c1cccc(-n2sc3ccccc3c2=O)c1`, for which the viability is 35.5%.
In the case of `CCOC(=O)c1ccc(NC(=O)CN2C(=O)NC3(CCCCCCC3)C2=O)cc1` it was 98.6% (inactive); in that of `CCOC(=O)c1ccc(S(=O)(=O)N2CCN(C3CCCC3)CC2)cc1`, 102% (inactive).
For `O=C(COC(=O)C12CC3CC(CC(Br)(C3)C1)C2)Nc1cccc(S(=O)(=O)N2CCOCC2)c1`, the viability was 99.3% (inactive).
As for `Cc1ccccc1C(=O)NCC(=O)N1CCN(C/C=C/c2ccccc2)CC1`, the viability was 83.1% (inactive).
In the case of `CCOc1ccc(-c2nc(N)ncc2-c2ccccc2)c(O)c1` it was 105% (inactive).
In the case of `COc1ccc(Nc2ccccc2N)cc1`, the viability was 90.2% (inactive).
With `CN(CC(=O)Nc1cc(S(=O)(=O)N2CCCC2)ccc1Cl)Cc1ccc2c(c1)OCO2`, the viability is 92.1% (inactive).
On to `COCCCN1CCc2[nH]c(=S)[nH]c(=O)c2C1`, for which the viability was 102% (inactive).
In the case of `COc1ccc(C2=Nc3cc(C)ccc3OC2)cc1` it was 108% (inactive); in that of `COc1ccccc1NS(=O)(=O)c1cc(NC(=O)CNC(=O)c2cc(C)cc(C)c2)ccc1C`, 61.6% (inactive).
Consider `CCN(CC)CCNC(=O)CCCNC(=O)Cn1cnc2sc(C)c(C)c2c1=O`, for which the viability is 104% (inactive).
With `CN1CCN(S(=O)(=O)c2ccc(C(=O)Nc3ccccc3)cc2)CC1`, the viability is 108% (inactive).
Regarding `Cc1cccc(NC(=O)C2CCN(S(=O)(=O)c3c(C)[nH]c(=O)[nH]c3=O)CC2)c1`, the viability is 110% (inactive).
With `COc1cccc(NC(=O)Nc2ccc3nc(C)c(C)nc3c2)c1`, the viability is 82.2% (inactive).
In the case of `CC(Sc1nc2ccccc2[nH]1)C(=O)NC1CCCCC1C` (stereo not drawn), the viability was 98.6% (inactive).
With `Cc1ccc(OCCOC(=O)c2cc(S(=O)(=O)N3CCCCC3)ccc2N2CCOCC2)cc1`, the viability was 92.3% (inactive).
As to `CCOC(=O)C1CCCN(S(=O)(=O)c2ccc(F)c(C(=O)Nc3ccc(F)c(F)c3)c2)C1` (stereo not drawn), the viability was 91.6% (inactive).
The result for `COc1ccc([N+](=O)[O-])cc1NC(=O)c1ccc(N(Cc2ccccc2C)S(C)(=O)=O)cc1` reads 111% (inactive).
In the case of `CC1CCCCC1NC(=O)COC(=O)c1ccc2ncsc2c1` (stereo not drawn) it was 92.6% (inactive).
In the case of `Cc1sc2ncnc(NCC(C)(C)N3CCOCC3)c2c1C`, the viability was -4.46%.
`CCOc1ccc(CCNC(=O)CCS(=O)(=O)c2ccc(C)cc2)cc1OCC`: the viability was 90.1% (inactive).
On to `CCC1(C)NC(=O)N(CC(=O)N2N=C(c3ccccc3)CC2c2ccc(OC)cc2)C1=O` (stereo not drawn), for which the viability is 103% (inactive).
Take `CN1CCN(S(=O)(=O)c2cccc(C(=O)Nc3cc(C(F)(F)F)ccc3N3CCCCC3)c2)CC1`: the viability is 102% (inactive).
`Cc1ccc(Cn2c([N+](=O)[O-])cnc2C)cc1`: the viability is 104% (inactive).
Take `O=C(CC1=NCCNC(c2ccccc2)C1)c1ccccc1O` (stereo not drawn): the viability was 115% (inactive).
The result for `O=C(NCc1cccnc1)C(=O)NCC(c1ccco1)N1CCN(c2ccccc2)CC1` (stereo not drawn) reads 106% (inactive).
`COc1ccc(S(=O)(=O)N2CCCC2C(=O)Nc2ccc(C(C)=O)cc2)cc1` (stereo not drawn): the viability is 112% (inactive).
The result for `CCC(C(=O)Nc1ccccc1)c1ccccc1` (stereo not drawn) reads 98.3% (inactive).
The result for `Cn1c(CNC(=O)CNC(=O)c2ccc(F)cc2)cc(=O)n(C)c1=O` reads 100% (inactive); that for `O=C(OCCOc1cccc(Cl)c1)c1ccc(F)c(S(=O)(=O)N2CCOCC2)c1`, 109% (inactive); that for `O=C(NCC1CCCCC1)c1ccc(Cl)c(S(=O)(=O)N2CCOCC2)c1`, 114% (inactive).
With `CC(C)(C)NC(=O)COc1ccc(CNCc2cccnc2)cc1`, the viability was 108% (inactive).
In the case of `COCc1c(C(=O)Nc2cccc(S(=O)(=O)N3CCCCC3)c2)oc2ccccc12` it was 78.5% (inactive); in that of `COc1ccc(S(=O)(=O)N2CCCCC2)cc1NC(=O)c1cnc(C)cn1`, 105% (inactive); in that of `O=C(CS(=O)(=O)Cc1ccccc1)N1CCc2ccccc21`, 102% (inactive).
Take `NC(=O)C1CCN(c2nc(-c3cc4ccccc4o3)cs2)CC1`: the viability was 109% (inactive).
`CCCNC(=O)c1nc2ncc(Br)cn2n1`: the viability was 103% (inactive).
Turning to `O=C(NNS(=O)(=O)c1ccc2ccccc2c1)c1cccs1`, the viability is 110% (inactive).
As for `Cc1cc(C)n(C(=O)c2sc3cc(F)ccc3c2Cl)n1`, the viability is 107% (inactive).
As for `CCCc1nnc(NC(=O)c2ccc(S(=O)(=O)N(C)c3ccccc3OC)cc2)s1`, the viability was 59.6% (inactive).
Take `CCOCC(=O)Nc1ccc(S(=O)(=O)N2CCC(c3nc4ccccc4[nH]3)CC2)cc1`: the viability was 106% (inactive).
The result for `Cc1ccc(O)c(CCc2ccccc2)n1` reads 116% (inactive).
As to `Cc1ccc(C(=O)NCCCN2CCOCC2)c(C)c1`, the viability was 108% (inactive).
Consider `Cc1ccc(S(=O)(=O)N2CCN(S(=O)(=O)N(C)C)CC2)c(C)c1`, for which the viability is 105% (inactive).
As to `COc1ccc(NC(=O)CSCC(=O)Nc2cccc(S(=O)(=O)N3CCCCCC3)c2)cc1`, the viability was 68.7% (inactive).
In the case of `O=C(NCCC1=CCCCC1)C(=O)NCC(c1ccco1)N1CCN(c2ccccc2F)CC1` (stereo not drawn) it was 109% (inactive); in that of `COc1ccc(/C=C2\SC(=S)N(CCC(=O)N3CCOCC3)C2=O)cc1`, 90.8% (inactive).
The result for `Cc1cc(=O)oc2c3c(cc(OCC(=O)NCc4ccncc4)c12)OC(C)(C)CC3` reads 110% (inactive).
With `O=C(c1ccc(N2C(=O)C3CC=C(Cl)CC3C2=O)cc1)N1CCCCC1` (stereo not drawn), the viability is 107% (inactive).
Turning to `COc1ccccc1CNC(=O)COc1ccc(C)cc1`, the viability was 99.1% (inactive).
On to `Cc1ccccc1C(=O)N1CCC(C(=O)Nc2ccc(C)c(S(=O)(=O)N3CCCCC3)c2)CC1`, for which the viability is 15.6%.
For `CCN(CC)C(=O)N1CCN(S(=O)(=O)c2ccc(C)cc2)CC1`, the viability was 96.8% (inactive).
`O=C1CC(c2nc3ccccc3[nH]2)CN1Cc1ccccc1` (stereo not drawn): the viability is 103% (inactive).
Consider `O=C(Cn1cc(C(F)(F)F)cc(Cl)c1=O)NCCc1ccc(Cl)cc1Cl`, for which the viability was 103% (inactive).
As to `COC(=O)c1ccccc1NC(=O)C1CCN(C(=O)c2cc(OC)cc(OC)c2)CC1`, the viability was 108% (inactive).
The result for `O=C(O)C1CCC(Cn2c(SCc3cc(=O)n4cc(Cl)ccc4n3)nc3ccsc3c2=O)CC1` (stereo not drawn) reads 111% (inactive); that for `CC(=O)c1ccc(-c2csc(N3CCC(C(N)=O)CC3)n2)cc1`, 70.7% (inactive); that for `COc1ccc(NC(=O)CC2C(=O)N(Cc3ccccc3)C(=S)N2CCN2CCOCC2)cc1` (stereo not drawn), 98.8% (inactive).
In the case of `O=C(NCCN1CCN(c2ccccc2)CC1)c1cccc(Br)c1` it was 96.4% (inactive); in that of `CC(=O)Nc1ccc(S(=O)(=O)NC2CCSc3ccccc32)cc1` (stereo not drawn), 110% (inactive).
`CCOC(=O)c1c(N2C(=O)CC(Sc3ccccc3C(=O)O)C2=O)sc2c1CCCC2` (stereo not drawn): the viability was 98% (inactive).
In the case of `CCCCn1nc(C(=O)N2CCN(S(=O)(=O)c3ccccc3)CC2)c2ccccc2c1=O`, the viability is 100% (inactive).
As for `Cc1ccc(NC(=O)COC(=O)CCc2c[nH]c3ccccc23)c(C)c1`, the viability was 122% (inactive).
In the case of `CN(C)S(=O)(=O)c1ccc(C(=O)NCCc2ccco2)cc1` it was 108% (inactive).
In the case of `CCCCOc1ccc(C(=O)NCC(=O)N2CCN(C(=O)c3ccco3)CC2)cc1` it was 107% (inactive); in that of `Cc1ncc([N+](=O)[O-])n1Cc1cccc(F)c1`, 104% (inactive).
Turning to `O=C(CCC(=O)N1CCOCC1)NCc1cccc(C(F)(F)F)c1`, the viability was 110% (inactive).
With `c1ccc(COc2ccc(OCCN3CCCCC3)cc2)cc1`, the viability is 57.1% (inactive).
